Measurements as given in US6893654B2, “Two-stage transmucosal medicine delivery system for symptom relief” (priority 1998, dated 2005).

Settings: solution at pH 8.0

CN1CCCC1c1cccnc1 (stereo not shown) [nicotine]
portion of nicotine unionized and free to be absorbed: fifty
